Assay: Thermal stability of triacetyl-β-CD (TGA)
Format: physicochemical
Method: In order to determine the stability of triacetyl-β-CD, a sample was heated to 400° C. at 20° C./min under nitrogen in a DuPont 2200 thermogravimetric spectrometer (FIG. 7). […] A sample of triacetyl-β-CD was then held at 300° C. for 35 minutes (FIG. 8). Even after extended heating at this temperature, only about 3.2% weight loss was observed.

Q: Which “Temperature until which 10% weight loss is not observed” value (TGA, FIG. 7) does the source give for CC(=O)OC[C@H]1O[C@@H]2O[C@H]3[C@H](OC(C)=O)[C@@H](OC(C)=O)[C@@H](O[C@H]4[C@H](OC(C)=O)[C@@H](OC(C)=O)[C@@H](O[C@H]5[C@H](OC(C)=O)[C@@H](OC(C)=O)[C@@H](O[C@H]6[C@H](OC(C)=O)[C@@H](OC(C)=O)[C@@H](O[C@H]7[C@H](OC(C)=O)[C@@H](OC(C)=O)[C@@H](O[C@H]8[C@H](OC(C)=O)[C@@H](OC(C)=O)[C@@H](O[C@H]1[C@H](OC(C)=O)[C@H]2OC(C)=O)O[C@@H]8COC(C)=O)O[C@@H]7COC(C)=O)O[C@@H]6COC(C)=O)O[C@@H]5COC(C)=O)O[C@@H]4COC(C)=O)O[C@@H]3COC(C)=O [triacetyl-β-CD, heptakis(2,3,6-tri-O-acetyl)-β-cyclodextrin] here?
A: 372 °C

Q: What about the “Weight loss observed until above 325° C.” value (heated to 400° C. at 20° C./min under nitrogen) of the same compound?
A: ca. 0.2%

Q: What about the Weight loss (held at 300° C. for 35 minutes) of the same compound?
A: about 3.2%
